Laboratory results from patent US20070276037A1, “Cytoprotective Effects of Ethyl Pyruvate” (priority 2003, published 2007).

How the values were obtained:
ischemic myocardium = assay: Myocardial ATP levels (luciferin/luciferase bioluminescence) in acute in vivo ischemia-reperfusion model; set-up: species or system rat; details: n=5
[1] = test system: ischemic and nonischemic myocardium; assay: Myocardial lipid peroxidation measurements after ischemia and reperfusion; format: in vivo, rat
[2] = test system: left ventricular infarction; assay: Planimetric determination of left ventricular infarction size (TTC/Evans blue); format: in vivo, rat; details: 30 minutes ischemia and 30 minutes reperfusion; n=15; mean ± SEM
myocardial function [3] = assay: Cardiac functional assessment following ischemia and reperfusion (pressure/volume conductance catheter, flow probe); format: in vivo, rat
myocardial function [4] = assay: Cardiac function over the course of induced ischemia and reperfusion, percentage of baseline (FIGS. 5-7); format: in vivo; details: p<0.05
Description: In order to determine overall effects of ethyl pyruvate on cardiac function, a number of parameters were evaluated over the course of induced ischemia, and reperfusion, as a function of time.

[5] = 30 min ischemia / 30 min reperfusion, n=6, FIG. 2, mean ± SEM
[6] = after 30 min ischemia / 30 min reperfusion, n=15
[7] = following ischemia and reperfusion, n=15, mean ± SEM, FIG. 8

Compound: CCOC(=O)C(C)=O [ethyl pyruvate]
- ATP level in ischemic region of heart (ischemic myocardium; 10 minutes after initiation of ischemia, 1.5 mL/kg iv bolus of 28 mmol/L ethyl pyruvate in Ringer's, mean ± SEM): 87.6 ± 29.2 nmol/g
- ATP levels versus controls (ischemic myocardium; ischemic myocardium 10 minutes after initiation of ischemia, FIG. 1): Significantly higher levels of ATP
- Lipid peroxide level, ischemic myocardium [1, 5]: 63.8 ± 3.3 nmol/g
- Lipid peroxide level, nonischemic myocardium [1, 5]: 42.3 ± 4.8 nmol/g
- Lipid peroxide level, ischemic myocardium ([1]; n=5, FIG. 3, mean ± SEM): 70.4 ± 2.6 nmol/g
- Lipid peroxidation in ischemic myocardium versus control hearts ([1]; n=6, FIG. 2): decreased the level of lipid peroxidation
- Lipid peroxidation in remote nonischemic myocardium versus control ([1]; n=6, FIG. 2): equivalent
- Left ventricular area at risk infarcted (infarction area/area at risk) [2]: 25.3%±1.5
- Myocardial function (end systolic pressure volume relationships) versus control animals (myocardial function [3]; FIG. 8): significantly improved myocardial function
- Cardiac output (myocardial function [3]; [6]): 26.7 ± 0.9 mL/min
- Ejection fraction (myocardial function [3]; [6]): 41.9 ± 3.8%
- Heart rate (myocardial function [3]; [6]): 183 ± 9.5 bpm
- Maximum dP/dt (myocardial function [3]; [6]): 3518 + 243 mm Hg/s
- Maximum pressure (myocardial function [3]; [6]): 86.6 ± 2.9 mm Hg
- Minimum dP/dt (myocardial function [3]; [6]): 2841 + 329 mm Hg/s
- ESPVR slope (myocardial function [3]; [7]): 1.09±0.22
- ESPVR x-axis intercept (x-int) (myocardial function [3]; [7]): 4.1±19.9
- Composite ESPVR (myocardial function [3]; regression composite, n=15, FIG. 8): 1.08 (ESV-4.0B)
- dP/dtmax (contractility) as percentage of baseline, versus controls (myocardial function [4]; after 8 minutes of ischemia and throughout reperfusion, FIG. 6): significantly greater
- Maximum left ventricular (LV) pressure as percentage of baseline, versus controls (myocardial function [4]; throughout ischemia and reperfusion, FIG. 5): significantly greater
- Cardiac output as percentage of baseline, versus controls (myocardial function [4]; throughout ischemia and reperfusion, FIG. 7): significantly greater
